Test [1] relates to N. tabacum. Kind of test: Calli regeneration under hygromycin selection after Agrobacterium-mediated transformation of leaves. The test is classed as in vivo, Nicotiana tabacum. The note with it: for Calli regenerated and transplanted: total: 20 leaves transformed. The procedure: Seeds of tobacco cultivar Big Havana were surface-sterilized with a solution containing 1% bleach and 0.05% Tween-80 for about 3 minutes and then rinsed twice with sterile distilled water for about 5 minutes. Surface-sterilized seeds were plated in 100 mm Petri dishes on sterile Whatman® filter paper submersed in 4 ml of liquid MS medium containing varying amounts of CeCl3, LaCl3 and a combination of CeCl3 and LaCl3 and the plants were transferred to a growth chamber for germination. Once germinated, the plants were removed from the growth chamber and grown for a period of one week under conditions of 16-hours light, 22° C. and 8-hours dark, 18° C. The three to five one week old plants were then removed from the 4-ml liquid medium and transferred to single sterile glass 250 ml flasks containing 15 ml of sterile liquid MS media supplemented with varying amounts of CeCl3, LaCl3 and a combination of CeCl3 and LaCl3. Flasks were then installed on shakers at 50-75 rpm. Plants were continuously grown under conditions of 16-hours light, 22° C. and 8-hours dark, 18° C. The growth medium in each flask was replaced weekly with 25 ml of fresh medium. Following a 3-week period, plants were removed from the flasks and 2 to 3 pairs of fully developed fresh leaves about 2-4 cm long were harvested (cut from the plant) for transformation with Agrobacteria.
Experimental groups of tobacco plants were germinated and grown in a liquid medium culture supplemented with varying amounts of CeCl3, LaCl3 and a combination of CeCl3 and LaCl3. Control plants for the transformation experiments were grown in a standard MS-medium that was not supplemented with CeCl3 or LaCl3.
Four weeks post-germination, the tobacco plants were removed from the liquid medium culture. The leaves from the plants were removed, and several parallel incisions were made along the leaves. The leaves were then vacuum infiltrated with an Agrobacterium suspension culture carrying the plasmid with LUC (gene coding for luciferase) and hygromycin (gene coding for the resistance to hygromycin) genes.
The leaves were vacuum-infiltrated twice for about 5 minutes with the Agrobacterium suspension culture using standard procedures known in the art. Following vacuum infiltration, the tobacco leaves were dried for about 5 to 10 minutes on sterile Whatman® filter paper to remove substantially all excess Agrobacterium cells. The leaves were then placed on plates containing MS medium, and each of the plates were placed for in a room for a period of 3 day at a temperature of 22° C. and exposed to a daily regime of 16-hours of light and 8-hours of dark.
Leaves from each of the experimental groups grown on the different media compositions having varying amounts of CeCl3, LaCl3 and a combination of CeCl3 and LaCl3 and the controls were washed with sterile water to remove the […]. To remove traces of growth medium, leaves were blotted on sterile filter paper and then submersed in a Petri dish laid out with Whatman® filter paper containing re-suspended Agrobacterium cells. Each submersed leaf surface was incised using a sharp surgical blade in parallel along the side veins. The distance between the two parallel incisions was about 5-7 mm. The primary leaf vein and leaf margins were left intact. Once cutting was complete, leaves remained submersed for a period of about 10 minutes. Leaves were then removed from the Petri dish and were blotted dry and placed upside-down on plates of MS medium, and were incubated in a dark room at 22° C. for a period of 3 days. Following incubation, leaves were removed from the plates and rinsed with sterile distilled water, blotted dry and transferred onto solid MS medium containing 0.8 mg/L of indole-3-acetic acid (IAA), and 2 mg/L kinetin for calli induction and regeneration, a combination of 100 mg/L ticarcillin and 3 mg/L potassium clavulanate to control Agrobacterium growth, and 25 mg/L hygromycin for selection for transformed cells. […]

Test [2] concerns N. tabacum. The test can be described thus: Stable T-DNA integration: LUC expression test of regenerated plantlets. The settings on record: for Calli regenerated and transplanted, LUC expression test: LUC negative / Calli regenerated and transplanted, LUC expression test: LUC positive: 20 leaves transformed. Format: in vivo, Nicotiana tabacum. As to the method: The number of transgenic plants, having incorporated a marker gene, regenerated from tobacco calli in various transformation experiments were counted. All the regenerated plants were screened using a luciferase camera. Spraying the transgenic plants with luciferine, the substrate for luciferase enzyme, allowed the identification of transgenic plants expressing the luciferase.
After a period of about 3 to 4 weeks, the number of regenerated calli were determined. Shoots that developed were excised from calli and transferred to a root inducing solid MS medium containing 0.5 mg/L of naphtaleneacetic acid (NAA), 100 mg/L ticarcillin, 3 mg/L potassium clavulanate and 25 mg/L hygromycin. After a 1 to 2 week period of root induction, the plantlets were transplanted to soil.
The effects of CeCl3 on the occurrence of stable plant transformation events in N. tabacum plants were evaluated. These experiments identified transformed plants where the DNA of interest had stably integrated into the plant genome.
The newly appeared plantlets regenerated from the calli of Example 3, showing evidence of root formation, were excised from the calli and transferred to soil.
Plantlets were sprayed with luciferine, and the total number of luciferase-positive plantlets was scored. This allowed the calculation of the transformation frequency, as the number of plants expressing LUC gene to the number of transformed leaves, shown in FIG. 4.
The number of stable transformants re-generated from plants grown on CeCl3 supplemented media and control medium, as detailed in Example 3, were compared.

[3] abbreviates: 0.1 μM CeCl3, liquid MS, Table 2 experiment.
Setting [4] is: 0.1 μM CeCl3, liquid MS, second independent experiment (Table 3).
Setting [5] is: 0.5 μM CeCl3, liquid MS, Table 2 experiment.
Where [6] appears, read: 1.0 μM CeCl3, liquid MS, second independent experiment (Table 3).

For `[Ce+3].[Cl-].[Cl-].[Cl-]` [CeCl3, cerium (III) chloride], the “increase in the number of calli regenerated compared to the control medium” value in the test on N. tabacum [1] (0.1 μM CeCl3, Table 2 experiment) is on record as 1.8 fold; in the test with N. tabacum [1] (0.1 μM CeCl3, second independent experiment (Table 3, FIG. 4)), 2.2 fold; in the test with N. tabacum [1] (0.5 μM CeCl3, Table 2 experiment), 2.9 fold; with N. tabacum [1] (1.0 μM CeCl3, second independent experiment (Table 3, FIG. 4)), 3.3 fold. The “Calli regenerated and transplanted: total” value worked out at 35 with N. tabacum [1] (setting [3]), 48 with N. tabacum [1] (setting [4]), 56 in the test on N. tabacum [1] (setting [5]) and 73 with N. tabacum [1] (setting [6]). The “difference in numbers of stable transformants versus control media” value was 2.0 fold with N. tabacum [2] (0.1 μM CeCl3, FIG. 4) and 3.4 fold in the test on N. tabacum [2] (1.0 μM CeCl3, FIG. 4). The “Calli regenerated and transplanted, LUC expression test: LUC negative” value stood at 13 with N. tabacum [2] (setting [3]), 13 in the test with N. tabacum [2] (setting [4]), 18 with N. tabacum [2] (setting [5]) and 18 in the test with N. tabacum [2] (setting [6]). Moreover, the “Calli regenerated and transplanted, LUC expression test: LUC positive” value amounted to 23 in the test with N. tabacum [2] (setting [3]), 34 with N. tabacum [2] (setting [4]), 38 with N. tabacum [2] (setting [5]) and 57 in the test with N. tabacum [2] (setting [6]). Besides, the Integration frequency in the test with N. tabacum [2] (setting [3]) is on record as 1.15 LUC positive plants/leaf trans; in the test on N. tabacum [2] (setting [4]), 1.7 LUC positive plants/leaf trans; in the test on N. tabacum [2] (setting [5]), 1.9 LUC positive plants/leaf trans; in the test with N. tabacum [2] (setting [6]), 2.85 LUC positive plants/leaf trans.

Source of the values: patent US20100251415A1, “Composition and Method for Modulating Plant Transformation” (priority 2009, published 2010).
